Entries after “also recorded” stand apart in the source; their conditions may differ.
Key:
Huh7 cells = assay: Western blotting of Huh7 nuclear fractions for YAP; format: cell-based, human; details: 24 h treatment
Text: Total protein extracts were obtained by homogenizing cells in total lysis buffer and analyzed by Western blotting as described recently (Oncotarget 2015; 6:41162-41179). Hippo kinases Mst1/2 and Lats1/2 work through a phosphorylation cascade to phosphorylate Yap, thereby retaining Yap in the cytoplasm. In spite of nucleotide-mediated Mst1/2 and Lats phosphorylation, ATP, ADP and ATPγS treatment was individually insufficient to induce Yap phosphorylation. […] Similarly, ATP treatment alone increased nuclear YAP protein expression (1.7 fold) (FIG. 20D).

Hep3B cells = assay: BrdU incorporation (proliferation) in Hep3B cells; format: cell-based, human
Procedure: Light microscopic images (10X) of BrdU immunostained cells are also shown. Hep3B cells were maintained in serum-free conditions for 24 hours and were pre-treated with AF-353 (5 μM) for 30 minutes, prior to treatment with ATP (100 μM) for 24 hours. BrdU-positive cells are expressed as a percentage of total number of cells. Data represents mean±SEM, n=3-6, *p<0.05 vs untreated (un). To determine whether P2 purinergic receptor activation influences HCC cell proliferation, BrdU incorporation was assessed in HCC cells maintained in SFM for 24 hours and treated with ATP for 24 hours. […] Hep3B, 46%; SNU-387, 47% and PLC/PRF/5, 24%), identifying nucleotides as liver cancer cell mitogens (FIG. 7A). Normal human primary hepatocytes isolated from healthy adults (no known history of HCC) in suspension or freshly-frozen prior to shipment (Cryoport Systems, CA) were purchased from Triangle Research Labs, NC. […] Formalin-fixed and paraffin embedded liver sections from HCC patients were analyzed by immunohistochemistry with anti-P2X3 antibody (Abcam, Cambridge, Mass.). […] BrdU positive cells were counted and expressed as a percentage of the total number of cells in ten randomly selected high-power fields (20×) per coverslips.

human hepatocytes = assay: Western blotting of cyclin proteins in human hepatocytes; format: cell-based
Procedure: Normal human primary hepatocytes isolated from healthy adults (no known history of HCC) in suspension or freshly-frozen prior to shipment (Cryoport Systems, CA) were purchased from Triangle Research Labs, NC. Fresh hepatocytes were plated on collagen-coated tissue culture plates or glass coverslips in Williams E complete media with additives (10% fetal bovine serum, 2 mM glutamine, […] insulin, 4 ng/ml glucagon, […] transferrin, 2.5 ng/ml sodium selenite, 10,000 U/ml penicillin, […] streptomycin, 50 g/ml gentamycin) for 3 h to ensure hepatocyte adherence to plates. Subsequently, hepatocytes were maintained in Williams E minimal media free from serum and growth factors for 24 h prior to treatment. Human hepatocellular carcinoma derived Huh7, and Hep3B, were cultured in Minimum Essential Medium Eagle (MEM); SNU-387 was cultured in Roswell Park Memorial Institute (RPMI) medium and PLC/PRF/5 cultured in Dulbecco's Modified Eagle's medium (DMEM). All maintenance culture media were supplemented with 10% fetal bovine serum (FBS), L-Glutamine (2 mM), penicillin (100 units/ml) and streptomycin ([…]) at 37° C. and 5% CO2. Cells were maintained in serum free media (containing 2 mM L-Glutamine, 100 units/ml penicillin and ([…])) streptomycin for 24 h prior to treatment. Total protein extracts were obtained by homogenizing cells in total lysis buffer (50 mM Tris-HCl, pH 7.5, 0.5 M NaCl, 2 mM EGTA, 2 mM EDTA, 1.0% Triton X-100, 0.25% Deoxycholate, 1 m/ml pepstatin, 1.0 m/ml leupeptin, 1.0 m/ml aprotinin, 1.0 mM phenylmethylsulfonyl fluoride, 1.0 mM Dithiothreitol, 2.0 mM activated Na3VO4, and 2.0 mM NaF) and centrifuging at 14,000 rpm for 10 min (4° C.). Equal amounts of total proteins as determined by BCA protein Assay (Pierce, Rockford, Ill.) were analyzed by Western blotting. Blots were probed with antibody specific for a-tubulin or GAPDH to ensure equal loading of proteins in each lane.

Compound: Nc1ncnc2c1ncn2[C@@H]1O[C@H](COP(=O)(O)OP(=O)(O)OP(=O)(O)O)[C@@H](O)[C@H]1O [ATP]
- nuclear YAP protein expression compared to untreated cells (Huh7 cells): 1.7 fold
- proliferation (BrdU incorporation) induced by ATP (Hep3B cells; SFM 24 hours, ATP 24 hours): 46%

Compound: Nc1ncnc2c1ncn2[C@@H]1O[C@H](COP(=O)(O)OP(=O)(O)OP(O)(O)=S)[C@@H](O)[C@H]1O [ATPγS]
- cyclin D3 protein expression (human hepatocytes; ATPγS 24 h): 2.0 fold
- cyclin E protein expression (human hepatocytes; ATPγS 24 h): 2.0 fold
- nuclear YAP protein expression compared to untreated cells (Huh7 cells): 2.8 fold

Compound: COc1cc(C(C)C)c(Oc2cnc(N)nc2N)cc1I [AF-353]
- effect on ATP-mediated induction of cyclin D3 and cyclin E expression (human hepatocytes; AF-353 5 μM pre-treatment, ATP 24 h): completely attenuated
- effect on ATP-mediated induction of BrdU incorporation (Hep3B cells; AF-353 5 μM pre-treatment 30 minutes, ATP 100 μM 24 hours): completely attenuated; also recorded: attenuates

Reference: patent publication US20180271863A1, “TARGETING P2 PURINERGIC RECEPTORS TO TREAT HEPATOCELLULAR CARCINOMA (HCC)” (Baylor College of Medicine, priority 2015, published 2018)
